In article PMC2748165 (Biochemical pharmacology, 2009):

Experiments:
P-gp [1] = target: T1, P-gp (Homo sapiens, UniProt P08183); assay: in vitro
[2] = dual perfusion of human placental lobule; cited from earlier work
P-gp [3] = target: T1, P-gp; assay type: biochemical
[4] = test system: P-gp of CEM leukemia cells; conditions: cited from earlier work
P-gp [5] = target: T1, P-gp; assay: Inhibition of [3H]-paclitaxel uptake by placental inside-out vesicles
[6] = placental IOVs 0.05 mg/mL, 20–500 nM [3H] paclitaxel, n = 10, mean ± SEM

T1 sequence (P08183 whole entry, the tested form may be a part): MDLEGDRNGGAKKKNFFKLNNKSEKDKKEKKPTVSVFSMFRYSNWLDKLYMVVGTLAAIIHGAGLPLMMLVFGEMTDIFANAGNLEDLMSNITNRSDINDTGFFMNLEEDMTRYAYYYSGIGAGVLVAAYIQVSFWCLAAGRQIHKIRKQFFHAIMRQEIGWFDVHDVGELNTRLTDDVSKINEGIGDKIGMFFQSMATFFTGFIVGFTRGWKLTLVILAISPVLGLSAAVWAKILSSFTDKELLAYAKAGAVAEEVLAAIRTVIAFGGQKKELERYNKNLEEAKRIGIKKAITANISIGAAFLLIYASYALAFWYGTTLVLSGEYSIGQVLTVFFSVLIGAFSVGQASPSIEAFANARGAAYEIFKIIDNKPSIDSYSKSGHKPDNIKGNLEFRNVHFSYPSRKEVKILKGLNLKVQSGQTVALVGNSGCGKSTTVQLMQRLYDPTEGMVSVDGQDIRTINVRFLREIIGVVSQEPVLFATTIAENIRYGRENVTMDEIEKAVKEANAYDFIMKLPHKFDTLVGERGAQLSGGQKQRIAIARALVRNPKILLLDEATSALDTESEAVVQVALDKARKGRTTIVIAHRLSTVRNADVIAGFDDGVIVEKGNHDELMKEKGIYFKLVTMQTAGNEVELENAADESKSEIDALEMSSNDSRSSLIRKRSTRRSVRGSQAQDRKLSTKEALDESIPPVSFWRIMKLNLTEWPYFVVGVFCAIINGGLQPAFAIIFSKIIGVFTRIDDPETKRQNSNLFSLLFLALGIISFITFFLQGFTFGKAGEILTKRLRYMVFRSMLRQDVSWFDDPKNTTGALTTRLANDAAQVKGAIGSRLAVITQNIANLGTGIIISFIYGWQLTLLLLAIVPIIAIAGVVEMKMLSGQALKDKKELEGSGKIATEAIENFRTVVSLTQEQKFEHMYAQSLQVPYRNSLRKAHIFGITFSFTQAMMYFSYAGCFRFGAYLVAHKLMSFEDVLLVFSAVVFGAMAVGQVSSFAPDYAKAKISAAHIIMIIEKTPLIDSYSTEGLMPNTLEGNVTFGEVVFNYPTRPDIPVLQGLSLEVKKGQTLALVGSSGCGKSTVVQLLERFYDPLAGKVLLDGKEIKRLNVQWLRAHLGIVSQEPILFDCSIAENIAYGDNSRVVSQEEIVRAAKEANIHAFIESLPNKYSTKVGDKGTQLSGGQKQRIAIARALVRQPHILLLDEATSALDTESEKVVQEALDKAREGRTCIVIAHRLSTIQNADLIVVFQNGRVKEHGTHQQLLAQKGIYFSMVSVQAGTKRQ

Question: What does the source list for CCC(=O)C(CC(C)N(C)C)(c1ccccc1)c1ccccc1 (stereo not drawn) [methadone]?
Answer: inhibition at 1 min (P-gp [1]): 60%; rate of transfer from the maternal to fetal circuit [2]: 29.4 ± 4.6%

Question: Which results are given for CC(=O)O[C@H]1C(=O)[C@@]2(C)[C@H]([C@H](OC(=O)c3ccccc3)[C@]3(O)C[C@H](OC(=O)[C@H](O)[C@@H](NC(=O)c4ccccc4)c4ccccc4)C(C)=C1C3(C)C)[C@]1(OC(C)=O)CO[C@@H]1C[C@@H]2O [paclitaxel]?
Answer: ATP dependent uptake of [3H]-paclitaxel into IOVs, mean (P-gp [3]; 200 individual placentas, mean): 23 pmol*mg protein^−1min^−1; ATP dependent uptake of [3H]-paclitaxel into IOVs, range (P-gp [3]; 200 individual placentas, range): 1–140 pmol*mg protein^−1min^−1; Vmax of ATP-dependent [3H] paclitaxel uptake (P-gp [3]; [6]): 20 ± 3 pmol*mg protein^−1min^−1; apparent Kt of ATP-dependent [3H] paclitaxel uptake (P-gp [3]; [6]): 66 ± 38 nM; apparent Kt of paclitaxel transport, CEM cells overexpressing P-gp ([4]; cells passaged in vinblastine, multidrug resistant, overexpressing P-gp): 63 ± 46 nM; Kt of paclitaxel transport, parental CEM cells ([4]; parental cells): 144 ± 56 nM

Question: With COc1ccc(CCN(C)CCCC(C#N)(c2ccc(OC)c(OC)c2)C(C)C)cc1OC (stereo not drawn) [verapamil] as the compound, how does the inhibition at 1 min, 2 mM (P-gp [5]) read?
Answer: The inhibition at 1 min, 2 mM was 99 ± 9%.
